Test results as given in publication PMC4913735, “Non‐glycosidic compounds can stimulate both human and mouse iNKT cells” (European Journal of Immunology, 2016).

How the values were obtained:
human iNKT‐cell TCR = human iNKT‐cell TCR (Homo sapiens, UniProt A0A0B4J240+P15813); experiment: SPR (BIAcore) binding of soluble human iNKT‐cell TCR to hCD1d/lipid complexes; details: for Kd: SPR equilibrium binding, hCD1d refolded with lipid, read-out: K d, human iNKT‐cell TCR binding to hCD1d/lipid complex; for koff: SPR kinetics experiment, read-out: k off, human iNKT‐cell TCR from hCD1d/lipid complex
Method: Two analogs of ThrCer, ThrCer 6, and ThrCer 7 were synthesized. […] We first carried out measurements to assess the binding affinity of these ThrCer analogs to human iNKT‐cell TCR (Fig. 1B). Recombinant human CD1d (hCD1d) molecules were refolded in vitro with ThrCer 6 and ThrCer 7 separately and coupled to BIAcore chips, over which refolded human iNKT‐cell TCR was injected at different concentrations 34. […] Importantly, these findings were consistent with data obtained using tetrameric human iNKT‐cell TCRs as a staining reagent to identify lipid/CD1d complexes on the surface of C1R cells that had been transfected with hCD1d cDNA (hCD1d C1R cells) and subsequently loaded with the different lipids 34 (Fig. 1C).
(§1) Soluble human invariant TCR was generated as previously described 34 where both the Vα24 and Vβ11 chains were individually overexpressed in Escherichia coli, purified from the inclusion bodies, then refolded, and purified to generate the TCR heterodimers, according to Boulter et al. 43. The murine TCR was generated according to Pellici et al. as a chimeric molecule (with variable murine regions and human constant regions) 44. The hybrid alpha chains and beta chains were individually expressed in E. coli and purified from the inclusion bodies, then refolded as above.
(§2) SPR experiments were performed with a BIAcore 3000 to measure the affinity and kinetics of iNKT‐cell TCR binding to human CD1d–ligand complexes. In brief, approximately 1000 RU of the biotinylated hCD1d–lipid complexes were immobilized onto streptavidin‐coated CM5 sensor chips (BIAcore). Aliquots of purified TCR with increasing concentrations were passed over immobilized hCD1d–lipid complex at a flow rate of 10 μL/min for the equilibrium‐binding experiments or 50 μL/min for the kinetics experiments. The dissociation constants, K d, were calculated by fitting the data from the equilibrium‐binding experiment to a non‐linear regression saturation binding model (GraphPad Prism 5.0), whereas the k off data were estimated from the kinetics experiments by fitting the data with the built‐in models of the BIAeval3.1 software (BIAcore).

[1] = molecular target: murine Vα14/Vβ8 iNKT‐cell TCR (Mus musculus, UniProt P11609+Z9CWY5XBV8); experiment: SPR binding of soluble murine iNKT‐cell TCR to mCD1d/lipid complexes; details: for Kd: SPR equilibrium binding, mCD1d loaded with lipid, read-out: K d, murine iNKT‐cell TCR binding to mCD1d/lipid complex
Source text: In order to extend the analysis of the ability of ThrCer analogs to activate iNKT‐cells in vivo, we assessed their ability to promote a response in a murine model. First, we performed binding assays using in vitro‐loaded murine recombinant CD1d (mCD1d) molecules and in vitro‐refolded murine Vα14/Vβ8 iNKT‐cell TCR.
as §1, §2

[2] = system: EG7 cells (OVA‐expressing EL4); experiment: Injection of OVA plus iNKT‐cell agonist in EG7 tumor‐bearing mice; assay type: in vivo; details: 1 μg lipid i.v. with OVA, 4 days after EG7 s.c.; for OVA‐specific CD8+ T cells in blood (tetramer) in tumor‐bearing mice: bled 7 days later
Method: To test the functional consequences of iNKT‐cell‐induced DC maturation (Fig. 1E and Supporting Information Fig. 1) and to assess whether iNKT‐cell activation mediated by the injection of either ThrCer 6 or ThrCer 7 could lead to cross‐presentation of peptides derived from soluble antigenic proteins, mice were injected with the tumor cell line EL4 encoding the full‐length OVA and then 4 days later were immunized i.v. with full‐length OVA together with 1 μg of non‐glycosidic iNKT‐cell agonists. As a control, mice were injected with α‐GalCer with full‐length OVA. Seven days later, OVA‐specific CD8^+ T‐cells were detected in the blood by H‐2 K^b/OVA257–264 tetramer staining of CD8^+ T cells.
Figure 4 Injection of ThrCer 6 with OVA into tumor‐bearing mice results in tumor regression. Mice (n = 4–6) were injected s.c. with OVA‐expressing EL4 cells (EG7 cells). Four days later mice were injected i.v. with OVA protein together with either vehicle or 1 μg of the indicated iNKT‐cell agonist. (A) Seven days later mice were bled and the number of H‐2K^b 257‐264 tetramer^+ cells was assessed by FACS analysis. (B) The size of the tumor was subsequently measured regularly using calipers and expressed as surface area. The arrow indicates the timing of the injection of soluble OVA plus iNKT‐cell agonists. (A and B) Data are shown as mean ± SEM and are representative of two independent experiments.
Mice (n = 4–6) were injected subcutaneously (s.c.) with 1 × 10^6 EG7 cells (a derivative of the thymoma EL4, expressing the OVA protein). Four days later mice were injected i.v. with 800 μg OVA together with either vehicle or 1 μg of the indicated iNKT‐cell agonist. Seven days later mice were bled and the number of H‐2K^b 257–264 tetramer^+ cells was assessed by FACS analysis. The size of the tumor was subsequently measured regularly using calipers and expressed as surface area.

Chain of murine Vα14/Vβ8 iNKT‐cell TCR (P11609 whole entry, looked up, other chains not shown): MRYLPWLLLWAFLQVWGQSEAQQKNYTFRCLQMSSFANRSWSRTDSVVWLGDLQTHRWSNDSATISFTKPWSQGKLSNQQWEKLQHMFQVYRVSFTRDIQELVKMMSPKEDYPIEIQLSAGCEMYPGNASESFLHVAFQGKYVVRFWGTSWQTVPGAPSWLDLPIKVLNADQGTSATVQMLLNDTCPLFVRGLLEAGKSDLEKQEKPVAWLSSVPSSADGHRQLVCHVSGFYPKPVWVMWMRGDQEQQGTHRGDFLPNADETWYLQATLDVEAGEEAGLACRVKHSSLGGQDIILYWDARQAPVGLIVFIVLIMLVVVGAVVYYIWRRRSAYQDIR

Kd (human iNKT‐cell TCR)	koff (human iNKT‐cell TCR)	Koff, murine iNKT‐cell TCR from mCD1d/lipid complex [1]	Kon, murine iNKT‐cell TCR to mCD1d/lipid complex [1]	Kd [1]	SMILES	Rejection of OVA‐expressing implanted tumors [2]	OVA‐specific CD8+ T cells in blood (tetramer) in tumor‐bearing mice [2]
0.61 ± 0.1 µM	0.165 s⁻¹	0.050 S^-1	3.47 x10^4 M^-1 S^-1	1.44 ± 0.13 µM	CCCCCCCCCCCCCCCCCCCCCCCCCC(=O)N[C@@H](CO[C@H]1CC[C@H](O)[C@H](O)[C@H]1O)[C@H](O)[C@H](O)CCCCCCCCCCCCCC [ThrCer 6]	rejected	peptide‐specific response
0.76 ± 0.08 µM	0.142 s⁻¹	0.214 S^-1	8.39 x10^4 M^-1 S^-1	2.55 ± 0.17 µM	CCCCCCCCCCCCCCCCCCCCCCCCCC(=O)NC(COC1CCCC(O)C(O)C1O)C(O)C(O)CCCCCCCCCCCCCC (stereo not shown) [ThrCer 7]	–	peptide‐specific response
1.12 ± 0.13 µM	0.41 s⁻¹	0.059 S^-1	3.93 x10^4 M^-1 S^-1	1.5 ± 0.16 µM	CCCCCCCCCCCCCCCCCCCCCCCCCC(=O)N[C@@H](CO[C@H]1O[C@H](CO)[C@H](O)[C@H](O)[C@H]1O)[C@H](O)[C@H](O)CCCCCCCCCCCCCC [α‐GalCer, α‐galactosylceramide, reference compound]	–	peptide‐specific response
